Assay results taken from patent publication US10314308B2, “Microbiocidal benzoxaboroles” (SYNGENTA PARTICIPATIONS AG, priority 2015, dated 2019).

Assays:
[1] = test system: Glomerella Lagenarium(Colletotrichum Ladenarium); experiment: Glomerella lagenarium (Colletotrichum lagenarium) / liquid culture (anthracnose); assay type: cell-based; conditions: PDB potato dextrose broth, 24° C., 3-4 days after application, read-out: disease control (inhibition of growth, photometrically)
Description: (§1) 10 Glomerella Lagenarium(Colletotrichum Ladenarium)/Liquid Culture (Anthracnose) Conidia of the fungus from cryogenic storage were directly mixed into nutrient broth (PDB potato dextrose broth). After placing a DMSO solution of test compound into a 96-well microtiter plate, the nutrient broth containing the fungal spores was added. The test plates were incubated at 24° C. and the inhibition of growth was measured photometrically 3-4 days after application.

Gaeumannomyces Graminis = experiment: Gaeumannomyces graminis / liquid culture (take-all of cereals); assay type: cell-based; conditions: PDB potato dextrose broth, 24° C., 4-5 days after application, read-out: disease control (inhibition of growth, photometrically)
Description: (§2) 13 Gaeumannomyces Graminis/Liquid Culture (Take-all of Cereals) Mycelial fragments of the fungus from cryogenic storage were directly mixed into nutrient broth (PDB potato dextrose broth). After placing a DMSO solution of test compound into a 96-well microtiter plate, the nutrient broth containing the fungal spores is added. The test plates were incubated at 24° C. and the inhibition of growth was determined photometrically 4-5 days after application.

[2] = test system: Puccinia Recondita f. sp. Tritici; experiment: Puccinia recondita f. sp. tritici / wheat / leaf disc preventative (brown rust); assay type: in vivo; conditions: foliar, wheat leaf segments cv Kanzler, inoculated 1 day after application, assessed 7-9 days after application, read-out: disease control
Description: 3 Puccinia Recondita f. sp. Tritici/Wheat/Leaf Disc Preventative (Brown Rust) Wheat leaf segments cultivated variety (cv) Kanzler were placed on agar in 24-well plates and sprayed with formulated test compound diluted in water. The leaf disks were inoculated with a spore suspension of the fungus 1 day after application. The inoculated leaf segments were incubated at 19° C. and 75% relative humidity under a light regime of 12/12 h (light/dark) in a climate cabinet and the activity of a compound was assessed as percent disease control compared to untreated when an appropriate level of disease damage appears in untreated check leaf segments (7-9 days after application).

[3] = test system: Mycosphaerella Graminicola(Septoria Tritici); experiment: Mycosphaerella graminicola (Septoria tritici) / liquid culture (Septoria blotch); assay type: cell-based; conditions: Zymoseptoria tritici, PDB potato dextrose broth, 24° C., 4-5 days after application, read-out: disease control (inhibition of growth, photometrically)
Description: as §2, with “12 Mycosphaerella Graminicola(Septoria Tritici)/Liquid” for “13 Gaeumannomyces Graminis/Liquid”, “(Septoria Blotch) Conidia” for “(Take-all of Cereals) Mycelial fragments”, “was” for “is”

Pythium Ultimum = experiment: Pythium ultimum / liquid culture (seedling damping off); assay type: cell-based; conditions: Globisporangium ultimum, potato dextrose broth, 24° C., 2-3 days after application, read-out: disease control (inhibition of growth, photometrically)
[4] = test system: Monographella Nivalis(Microdochium Nivale); experiment: Monographella nivalis (Microdochium nivale) / liquid culture (foot rot cereals); assay type: cell-based; conditions: PDB potato dextrose broth, 24° C., 4-5 days after application, read-out: disease control (inhibition of growth, photometrically)
Description: as §2, with “14 Monographella Nivalis(Microdochium Nivale)/Liquid” for “13 Gaeumannomyces Graminis/Liquid”, “(Foot Rot” for “(Take-all of”, “Conidia” for “Mycelial fragments”, “was” for “is”

[5] = test system: Mycosphaerella Arachidis(Cercospora Arachidicola); experiment: Mycosphaerella arachidis (Cercospora arachidicola) / liquid culture (early leaf spot); assay type: cell-based; conditions: PDB potato dextrose broth, 24° C., 4-5 days after application, read-out: disease control (inhibition of growth, photometrically)
Description: as §2, with “11 Mycosphaerella Arachidis(Cercospora Arachidicola)/Liquid” for “13 Gaeumannomyces Graminis/Liquid”, “(Early Leaf Spot) Conidia” for “(Take-all of Cereals) Mycelial fragments”, “was” for “is”

[6] = test system: Thanatephorus Cucumeris(Rhizoctonia Solani); experiment: Thanatephorus cucumeris (Rhizoctonia solani) / liquid culture (foot rot, damping-off); assay type: cell-based; conditions: PDB potato dextrose broth, 24° C., 3-4 days after application, read-out: disease control (inhibition of growth, photometrically)
Description: 16 Thanatephorus Cucumeris(Rhizoctonia Solani)/Liquid Culture (Foot Rot, Damping-Off) Mycelia fragments of a newly grown liquid culture of the fungus were directly mixed into nutrient broth (PDB potato dextrose broth). After placing a DMSO solution of the test compounds into a 96-well microtiter plate at an application rate of 200 ppm, the nutrient broth containing the fungal material was added. The test plates were incubated at 24° C. and the inhibition of growth was determined photometrically 3-4 days after application.

Fusarium Culmorum = experiment: microbe, parasite or virus in culture; assay type: cell-based; conditions: read-out: disease control (inhibition of growth, photometrically)
[7] = test system: Botryotinia Fuckeliana(Botrytis Cinerea); experiment: Botryotinia fuckeliana (Botrytis cinerea) / liquid culture (gray mould); assay type: cell-based; conditions: Vogels broth, 24° C., 3-4 days after application, read-out: disease control (inhibition of growth, photometrically)
Description: as §1, with “9 Botryotinia Fuckeliana(Botrytis Cinerea)/Liquid” for “10 Glomerella Lagenarium(Colletotrichum Ladenarium)/Liquid”, “(Gray Mould)” for “(Anthracnose)”, “(Vogels” for “(PDB potato dextrose”, “determined” for “measured”

Sclerotinia Sclerotiorum = experiment: Sclerotinia sclerotiorum / liquid culture (cottony rot); assay type: cell-based; conditions: PDB potato dextrose broth, 24° C., 3-4 days after application, read-out: disease control (inhibition of growth, visually)
Description: 17 Sclerotinia Sclerotiorum/Liquid Culture (Cottony Rot) Mycelia fragments of a newly grown liquid culture of the fungus were directly mixed into nutrient broth (PDB potato dextrose broth). After placing a (DMSO) solution of the test compounds into a microtiter plate (96-well format) the nutrient broth containing the fungal material was added. The test plates were incubated at 24° C. and the inhibition of growth was determined visually 3-4 days after application.

Plasmopara Viticola = experiment: whole plant or invertebrate; assay type: in vivo; conditions: foliar, read-out: disease control
[8] = test system: Phaeosphaeria Nodorum (Septoria Nodorum); experiment: Phaeosphaeria nodorum (Septoria nodorum) / wheat / leaf disc preventative (glume blotch); assay type: in vivo; conditions: Parastagonospora nodorum, foliar, wheat leaf segments cv Kanzler, inoculated 2 days after application, assessed 5-7 days after application, read-out: disease control
Description: 5 Phaeosphaeria Nodorum (Septoria Nodorum)/Wheat/Leaf Disc Preventative (Glume Blotch) Wheat leaf segments cv Kanzler were placed on agar in a 24-well plate and sprayed with formulated test compound diluted in water. The leaf disks were inoculated with a spore suspension of the fungus 2 days after application. The inoculated test leaf disks were incubated at 20° C. and 75% relative humidity under a light regime of 12/12 h (light/dark) in a climate cabinet and the activity of a compound was assessed as percent disease control compared to untreated when an appropriate level of disease damage appears in untreated check leaf disks (5-7 days after application).

Row | SMILES | inhibition at 20 ppm [1] [%] | inhibition at 20 ppm (Gaeumannomyces Graminis) [%] | pest or weed control at 200 ppm [2] [%] | inhibition at 20 ppm [3] [%] | inhibition at 20 ppm (Pythium Ultimum) [%] | inhibition at 20 ppm [4] [%] | inhibition at 20 ppm [5] [%] | inhibition at 20 ppm [6] [%] | melting point [°C] | inhibition at 20 ppm (Fusarium Culmorum) [%] | inhibition at 20 ppm [7] [%] | inhibition at 20 ppm (Sclerotinia Sclerotiorum) [%] | pest or weed control at 200 ppm (Plasmopara Viticola) [%] | pest or weed control at 200 ppm [8] [%]
1 | Cc1cc(-c2cc3c(cc2Cl)COB3O)c(C)s1 [Compound 90] | ≥ 80 | ≥ 80 | ≥ 80 | ≥ 80 | ≥ 80 | ≥ 80 | ≥ 80 | ≥ 80 |  |  |  |  |  | 
2 | OB1OCc2ccc(-c3ncon3)cc21 [Compound 92] | ≥ 80 | ≥ 80 | ≥ 80 | ≥ 80 | ≥ 80 | ≥ 80 | ≥ 80 | ≥ 80 | 209 to 211 | ≥ 80 | ≥ 80 | ≥ 80 |  | 
3 | COc1nccc(-c2cc3c(cc2Cl)COB3O)c1Cl [Compound 73] | ≥ 80 | ≥ 80 | ≥ 80 | ≥ 80 | ≥ 80 | ≥ 80 | ≥ 80 | ≥ 80 |  | ≥ 80 | ≥ 80 | ≥ 80 | ≥ 80 | 
4 | OB1OCc2cc(Cl)c(-c3cncs3)cc21 [Compound 25] | ≥ 80 | ≥ 80 |  | ≥ 80 | ≥ 80 | ≥ 80 | ≥ 80 | ≥ 80 |  | ≥ 80 | ≥ 80 | ≥ 80 | ≥ 80 | ≥ 80
5 | OB1OCc2ccc(-c3ncno3)cc21 [Compound 49] | ≥ 80 | ≥ 80 |  | ≥ 80 | ≥ 80 | ≥ 80 | ≥ 80 | ≥ 80 | 179 to 180 | ≥ 80 | ≥ 80 | ≥ 80 | ≥ 80 | ≥ 80
6 | OB1OCc2cc(Cl)c(-c3ncon3)cc21 [Compound 96] | ≥ 80 | ≥ 80 | ≥ 80 | ≥ 80 | ≥ 80 | ≥ 80 | ≥ 80 | ≥ 80 | 180 to 203 | ≥ 80 | ≥ 80 | ≥ 80 |  | 
7 | Cc1cscc1-c1cc2c(cc1F)COB2O [Compound 50] | ≥ 80 | ≥ 80 |  | ≥ 80 | ≥ 80 | ≥ 80 | ≥ 80 | ≥ 80 |  | ≥ 80 | ≥ 80 | ≥ 80 | ≥ 80 | ≥ 80
